Molecules are shown by their SMILES. Where a name gives a salt, the structure may show the parent alone. Read-outs that look alike come from different tables or passages of the source. Some results are limits rather than exact numbers.

The target of data set [1] is muscarinic acetylcholine receptors. To be noted: read-out: affinity of ^3 H-Oxo labelled site, cited from earlier work.
In data set [2] the test system is substantia nigra. To be noted: chronic nicotine; lesioning; cited from earlier work.
For data set [3], the system named is dopaminergic effects. To be noted: various behavioral models; cited from earlier work.
Data set [4] has as its system dopamine release in the nucleus accumbens. To be noted: nucleus accumbens versus striatum; cited from earlier work.
In data set [5] the test system is attention and memory. To be noted: healthy humans and Alzheimer's disease patients; cited from earlier work.
Data set [6] relates to Tourette's syndrome. To be noted: in vivo; cited from earlier work.
Data set [7] has as its target T1, nicotinic acetylcholine receptors (Rattus norvegicus, UniProt P09483+P12390).
T1 construct: Fresh or frozen rat, brain tissue (hippocampus or cortex) was homogenized; from tissue
As to the kind of experiment: inhibition of specific binding of ^3 H-methylcarbamylcholine (^3 H-MCC). To be noted: for IC50: rat cortical receptors, ^3 H-MCC 2 nM, 0° C., 60 min. The source says: The pharmacological properties of the compounds of the invention can be illustrated by determining their capability to inhibit the specific binding of ^3 H-methylcarbamylcholine (^3 H-MCC) (Abood and Grassi, Biochem. Pharmacol., Vol. 35, pp. 4199-4202, (1986)).
^3 H-MCC labels the nicotinic receptors in the CNS. The inhibitory effect on ^3 H-MCC binding reflects the affinity for nicotinic acetylcholine receptors.
Fresh or frozen rat, brain tissue (hippocampus or cortex) was homogenized in assay buffer (50 mM Tris-HCl, pH 7.4, 120 mM NaCl, 5 mM KCl, 2 mM CaCl2, 1 mM MgCl2) and centrifuged for 10 min. at 40.000×g. Pellets were subsequently reconstituted in assay buffer and an appropriate amount of tissue sample was mixed in tubes with ^3 H-methylcarbamylcholine (NEN, NET-951; final concentration 2 nM) and test drug. The tubes were incubated at 0° C. for 60 min. Unbound ligand was separated from bound ligand by vacuum filtration through GF/B filters presoaked in 0.5% polyethylenimine. Filters were washed three times with 5 ml wash buffer (50 mM Tris-HCl, pH 7.4) and transferred to vials. 4 ml scintillation fluid was added and the radioactivity was measured by scintillation counting. Unspecific binding was measured with 10 μM nicotine.
The IC50 values of the test compounds were determined by nonlinear regression analyses (GraphPad InPlot).
Table I illustrates the affinity of the compounds of the present invention for nicotinic and muscarinic receptors as determined by ^3 H-MCC and ^3 H-Oxo binding to rat cortical receptors. The compounds, however, show selective affinity for nicotinic receptors as compared to muscarinic receptors, i.e OXO/MCC>1.

The target of data set [8] is muscarinic acetylcholine receptors. As to the kind of experiment: inhibition of specific binding of ^3 H-Oxotremorine-M (^3 H-Oxo). To be noted: rat cortical receptors; ^3 H-Oxotremorine 1.0 nM, 25° C., 30 min. An excerpt:
Furthermore, the pharmacological properties of the compounds of the invention can also be illustrated by determining their capability to inhibit the specific binding of ^3 H-Oxotremorine-M (^3 H-Oxo). Birdsdall N. J. M., Hulme E. C., and Burgen A. S. V. (1980). "The Character of Muscarinic Receptors in Different Regions of the Rat Brain". Proc. Roy. Soc. London (Series B) 207,1.
^3 H-Oxo labels muscarinic receptor in the CNS (with a preference for agonist domains of the receptors). Three different sites are labelled by ^3 H-Oxo. […] Using the present experimental conditions only the high and medium affinity sites are determined.
The inhibitory effects of compounds on ^3 H-Oxo binding reflects the affinity for muscarinic acetylcholine receptors.
All preparations are performed at 0-4° C. unless otherwise indicated. […]
The final pellet is homogenized in 20 mM Hepes pH: 7.4 (100 ml per g of original tissue) and used for binding assay. […] Non-specific binding is determined in triplicate using arecoline (1 ug/ml, final concentration) as the test substance. […] The amount of radioactivity on the filters are determined by conventional liquid scintillation counting. […]
Table I illustrates the affinity of the compounds of the present invention for nicotinic and muscarinic receptors as determined by ^3 H-MCC and ^3 H-Oxo binding to rat cortical receptors. […]

For data set [9], the system named is cognition. To be noted: age related; cited from earlier work.

T1 sequence (P09483 31-630): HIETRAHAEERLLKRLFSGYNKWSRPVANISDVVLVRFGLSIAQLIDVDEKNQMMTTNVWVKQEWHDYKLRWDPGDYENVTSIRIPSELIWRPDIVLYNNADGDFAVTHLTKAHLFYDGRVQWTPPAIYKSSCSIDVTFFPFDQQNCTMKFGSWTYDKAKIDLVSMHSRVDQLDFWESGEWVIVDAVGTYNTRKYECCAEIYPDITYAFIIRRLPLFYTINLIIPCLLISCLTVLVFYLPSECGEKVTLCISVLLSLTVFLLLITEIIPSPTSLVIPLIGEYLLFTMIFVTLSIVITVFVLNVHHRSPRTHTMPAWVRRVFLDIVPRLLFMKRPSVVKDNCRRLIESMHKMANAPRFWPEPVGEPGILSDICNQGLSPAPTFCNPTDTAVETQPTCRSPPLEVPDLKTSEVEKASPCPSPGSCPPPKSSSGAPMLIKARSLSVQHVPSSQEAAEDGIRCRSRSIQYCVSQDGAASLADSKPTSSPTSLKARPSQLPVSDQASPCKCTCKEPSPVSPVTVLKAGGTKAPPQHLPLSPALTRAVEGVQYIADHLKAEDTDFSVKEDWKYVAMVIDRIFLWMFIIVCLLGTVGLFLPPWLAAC
T1 sequence (P12390 25-500): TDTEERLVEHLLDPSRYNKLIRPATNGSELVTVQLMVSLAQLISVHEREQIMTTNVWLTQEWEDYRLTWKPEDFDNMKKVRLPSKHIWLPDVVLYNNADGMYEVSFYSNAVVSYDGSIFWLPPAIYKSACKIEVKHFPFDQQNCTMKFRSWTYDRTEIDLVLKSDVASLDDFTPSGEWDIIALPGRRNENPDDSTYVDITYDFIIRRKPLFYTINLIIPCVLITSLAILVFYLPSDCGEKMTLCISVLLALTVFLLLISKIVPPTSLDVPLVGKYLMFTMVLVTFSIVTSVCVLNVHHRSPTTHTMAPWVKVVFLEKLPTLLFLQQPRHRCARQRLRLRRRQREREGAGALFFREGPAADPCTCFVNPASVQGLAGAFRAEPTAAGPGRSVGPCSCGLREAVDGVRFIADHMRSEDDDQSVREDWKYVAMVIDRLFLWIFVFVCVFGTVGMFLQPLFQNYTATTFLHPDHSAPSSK

Consider `C[N+](C)(C)CC#CCN1CCCC1=O` [^3 H-Oxo, ^3 H-Oxotremorine-M], for which the Kd was 1.8 nM in data set [1] (high affinity site); 20 nM in data set [1] (medium affinity site); 3000 nM in [1] (third (lowest affinity) site, not determined under the present conditions).

As to `CN1CCCC1c1cccnc1` (centres unmarked) [nicotine], the “protection against cell loss in the substantia nigra” value in data set [2] is reported as “may protect against cell loss in the substantia nigra caused by lesioning”. In addition, the “potentiation of dopaminergic effects” value in data set [3] is given as “will potentiate dopaminergic effects in various behavioral models”. In data set [4], the “stimulation of dopamine release” value is “stimulates dopamine release in the nucleus accumbens more potently than in striatum”. Moreover, the attention and memory result in data set [5] was “improved attention and memory in healthy humans”. In addition, the “effects in Tourette's syndrome” value in data set [6] is “shown beneficial effects in Tourette's syndrome”.

The term IC50 denotes the concentration that inhibits the measured activity by half. A lower IC50 goes with greater potency. Turning to `CC(=O)/C=C1\CN2CCC1CC2.O=C(O)C(=O)O` [Compound 1, (Z)-3-Acetylmethylene-1-azabicyclo[2.2.2]octane oxalate], the IC50 in data set [7] is 23 nM; in [8], 1200 nM. Besides, in [7] (selectivity nicotinic versus muscarinic: ^3 H-Oxo IC50 / ^3 H-MCC IC50), the “Oxo/MCC Ratio” value is 52.

For `CC(=O)/C=C1/CN2CCC1CC2` [Compound 2, (E)-3-Acetylmethylene-1-azabicyclo[2.2.2]octane oxalate], the concentration for half-maximal inhibition (IC50) in data set [7] was greater than 300 nM; in [8], less than 1000 nM.

In the case of `CNC1(C)C2CCC(C2)C1(C)C` (centres unmarked) [mecamylamine], the cognitive impairment entry in data set [9] is recorded as “shown to cause cognitive impairment in an age related way”.

The values are drawn from patent US5936088A, “Substituted azacyclic or azabicyclic compounds with affinity and selectivity for nicotinic cholinergic receptors” (Novo Nordisk A/S, priority 1995, dated 1999).
